Results reported in patent US9463252B2, “Auristatin drug linker conjugates” (priority 2008, dated 2016).

Legend:
Caki-2 = experiment: Cytotoxicity of Auristatin-Peptide-h1F6 conjugates, resazurin assay; type: cell-based
Protocol: (§1) The conjugates contain approximately 4 drugs per antibody.
Following the procedure described as Examples 57 and 58, Auristatin-Peptide-h1F6 conjugates were evaluated on CD70^+ cell, such as 786-O, Caki-1, Caki-2, and L428. Conjugates contain approximately 4 drugs per antibody.

786-O = experiment: as above; type: cell-based, human; settings: for IC50 786-0: Table 4
Description: as §1

HCT-116 (CD70−) = experiment: Cytotoxicity of Auristatin-Peptide-h1F6 conjugates, CD70- control cell line; type: cell-based
Description: as §1

L428 = experiment: Cytotoxicity of Auristatin-Peptide-h1F6 conjugates, resazurin assay; type: cell-based
Description: as §1

Caki-1 = experiment: as above; type: cell-based
Description: as §1

LP-1 = experiment: as above; type: cell-based, human
Description: as §1

UMRC-3 = experiment: as above; type: cell-based
Description: as §1

U251 = experiment: as above; type: cell-based; settings: Table 4, ~4 drugs/Ab
Description: as §1

[1] = Table 5, h1F6 conjugates, ~4 drugs/Ab
[2] = Table 8, h1F6 conjugates, D vs L amino acid in second linker position
[3] = Table 4, h1F6 conjugates, ~4 drugs/Ab
[4] = Table 9, h1F6-Drug(4) conjugates, mono- vs dipeptide linker
[5] = Table 10, h1F6-Drug(4) conjugates, aryl or alkyl maleimides
[6] = Table 7, h1F6 conjugates, AF vs MMAF

| Substance | IC50 Caki-2 (Caki-2; [1]) [µg/mL] | IC50 786-O (786-O; [1]) [µg/mL] | IC50 HCT-116 (CD70−) (HCT-116 (CD70−); Table 5, ~4 drugs/Ab) [µg/mL] | IC50 L428 (L428; [1]) [µg/mL] | IC50 Caki-1 (Caki-1; [1]) [µg/mL] | further results |
| --- | --- | --- | --- | --- | --- | --- |
| AF-Arginine-(D)Lysine-diaminoethane-propionyl maleimide [AF-Arg-(D)Lys] | 0.008 | 0.008 | >1 | 0.047 | 0.01 |  |
| AF-Asparagine-(D)Aspartic Acid-diaminoethane-propionyl maleimide [AF-Asn-(D)Asp] | 0.071 | 0.007 | >1 | 0.014 | 0.007 |  |
| AF-Asparagine-(D)Lysine-(D)Lysine-diaminoethane-propionyl maleimide [AF-Asn-(D)Lys-(D)Lys] | 0.03 | 0.009 | >1 | 0.022 | 0.01 |  |
| AF-Asparagine-(L)Lysine-diaminoethane-propionyl maleimide [AF-Asn-(L)Lys] |  |  |  |  |  | IC50 LP-1 (LP-1; [2]): 0.501 µg/mL; IC50 786-O (786-O; [2]): 0.009 µg/mL; IC50 L-428 (L428; [2]): 0.008 µg/mL; IC50 Caki-1 (Caki-1; [2]): 0.008 µg/mL; IC50 UMRC-3 (UMRC-3; [2]): 0.026 µg/mL |
| AF-Asparagine-Proline-diaminoethane-propionyl maleimide [AF-Asn-Pro] | 0.032 | 0.011 | >1 | 0.023 | 0.012 |  |
| AF-Asparagine-Valine-diaminoethane-propionyl-maleimide [AF-Asn-Val] |  |  |  |  |  | IC50 LP-1 (LP-1; [3]): 0.174 µg/mL; IC50 786-0 (786-O; h1F6 conjugates, ~4 drugs/Ab): 0.0126 µg/mL; IC50 HCT-116 (CD70−) (HCT-116 (CD70−); Table 4, ~4 drugs/Ab): >1 µg/mL; IC50 L428 (L428; [3]): 0.0117 µg/mL; IC50 Caki-1 (Caki-1; [3]): 0.0223 µg/mL; IC50 U251 (U251): 0.251 µg/mL; IC50 UMRC-3 (UMRC-3; [3]): 0.0468 µg/mL |
| AF-AsparticAcid-Valine-Diaminoethane-Propionyl-Maleimide [AF-Asp-Val] |  |  |  |  |  | IC50 LP-1 (LP-1; [3]): 0.234 µg/mL; IC50 786-0 (786-O; h1F6 conjugates, ~4 drugs/Ab): 0.018 µg/mL; IC50 HCT-116 (CD70−) (HCT-116 (CD70−); Table 4, ~4 drugs/Ab): >1 µg/mL; IC50 L428 (L428; [3]): 0.018 µg/mL; IC50 Caki-1 (Caki-1; [3]): 0.025 µg/mL; IC50 U251 (U251): 0.407 µg/mL; IC50 UMRC-3 (UMRC-3; [3]): 0.054 µg/mL |
| AF-Citrulline-(D)Lysine-diaminoethane-propionyl maleimide [AF-Cit-(D)Lys] | 0.016 | 0.01 | >1 | 0.047 | 0.011 |  |
| AF-Glutamine-(D)Lysine-diaminoethane-propionyl maleimide [AF-Gln-(D)Lys] | 0.014 | 0.012 | >1 | 0.209 | 0.011 |  |
| AF-Homo-β-Phenylalanine-(D)Aspartic Acid-diaminoethane-propionyl maleimide [AF-hPhe-(D)Asp] | >1 | 0.01 | >1 | 0.029 | >1 |  |
| AF-Isoleucine-Valine-diaminoethane-propionyl-maleimide [AF-Ile-Val] |  |  |  |  |  | IC50 LP-1 (LP-1; [3]): 0.019 µg/mL; IC50 786-0 (786-O; h1F6 conjugates, ~4 drugs/Ab): 0.0034 µg/mL; IC50 HCT-116 (CD70−) (HCT-116 (CD70−); Table 4, ~4 drugs/Ab): >1 µg/mL; IC50 L428 (L428; [3]): 0.0025 µg/mL; IC50 Caki-1 (Caki-1; [3]): 0.0037 µg/mL; IC50 U251 (U251): 0.0446 µg/mL; IC50 UMRC-3 (UMRC-3; [3]): 0.0195 µg/mL |
| AF-Lysine-(D)Lysine-diaminoethane-propionyl maleimide [AF-Lys-(D)Lys] | 0.009 | 0.009 | >1 | 0.037 | 0.008 |  |
| AF-Methionine-(D)Aspartic Acid-diaminoethane-propionyl maleimide [AF-Met-(D)Asp] | 0.035 | 0.008 | >1 | 0.011 | 0.01 |  |
| AF-Methionine-(D)Lysine-(D)Lysine-diaminoethane-propionyl maleimide [AF-Met-(D)Lys-(D)Lys] | 0.025 | 0.008 | >1 | >1 | 0.012 |  |
| AF-Methionine-(D)Methionine-diaminoethane-propionyl maleimide [AF-Met-(D)Met] | 0.013 | 0.004 | >1 | 0.004 | 0.005 |  |
| AF-Methionine-(D)Valine-diaminoethane-propionyl maleimide [AF-Met-(D)Val] | 0.032 | 0.005 | >1 | 0.008 | 0.006 |  |
| AF-Methionine-(L)Lysine-diaminoethane-propionyl maleimide [AF-Met-(L)Lys] |  |  |  |  |  | IC50 LP-1 (LP-1; [2]): 0.095 µg/mL; IC50 786-O (786-O; [2]): 0.007 µg/mL; IC50 L-428 (L428; [2]): 0.003 µg/mL; IC50 Caki-1 (Caki-1; [2]): 0.004 µg/mL; IC50 UMRC-3 (UMRC-3; [2]): 0.022 µg/mL |
| AF-Methionine-Proline-diaminoethane-propionyl maleimide [AF-Met-Pro] | 0.025 | 0.008 | >1 | 0.008 | 0.015 |  |
| AF-Methionine-diaminoethane-propionyl maleimide |  |  |  |  |  | IC50 LP-1 (LP-1; [4]): 0.11 µg/mL; IC50 786-O (786-O; [4]): 0.008 µg/mL; IC50 L-428 (L428; [4]): 0.003 µg/mL; IC50 Caki-1 (Caki-1; [4]): 0.006 µg/mL; IC50 UMRC-3 (UMRC-3; [4]): 0.017 µg/mL |
| AF-Tyrosine-(D)Lysine-diaminoethane-propionyl maleimide [AF-Tyr-(D)Lys] | 0.012 | 0.009 | >1 | 0.01 | 0.011 |  |
| AF-Tyrosine-Valine-diaminoethane-propionyl-maleimide [AF-Tyr-Val] |  |  |  |  |  | IC50 LP-1 (LP-1; [3]): 0.034 µg/mL; IC50 786-0 (786-O; h1F6 conjugates, ~4 drugs/Ab): 0.0037 µg/mL; IC50 HCT-116 (CD70−) (HCT-116 (CD70−); Table 4, ~4 drugs/Ab): >1 µg/mL; IC50 L428 (L428; [3]): 0.003 µg/mL; IC50 Caki-1 (Caki-1; [3]): 0.007 µg/mL; IC50 U251 (U251): 0.0468 µg/mL; IC50 UMRC-3 (UMRC-3; [3]): 0.0195 µg/mL |
| AM-Asparagine-(D)Lysine-diaminoethane-benzoyl maleimide [AM-Asn-(D)Lys-aryl maleimide] |  |  |  |  |  | IC50 Caki-2 (Caki-2; [5]): 0.017 µg/mL; IC50 786-O (786-O; [5]): 0.016 µg/mL; IC50 L428 (L428; [5]): 0.023 µg/mL; IC50 Caki-1 (Caki-1; [5]): 0.01 µg/mL |
| AM-Asparagine-diaminoethane-propionyl maleimide [AM-Asn] | 0.063 | 0.03 | >1 | 0.032 | 0.031 |  |
| AM-Methionine-(D)Lysine-diaminoethane-propionyl maleimide [AM-Met-(D)Lys] | 0.251 | 0.056 | >1 | 1 | 0.039 |  |
| AM-Tyrosine-(D)Aspartic Acid-diaminoethane-propionyl maleimide [AM-Tyr-(D)Asp] | 0.071 | 0.032 | >1 | 0.03 | 0.023 |  |
| AW-Asparagine-(D)Lysine-diaminoethane-propionyl maleimide [AW-Asn-(D)Lys] | 0.026 | 0.016 | >1 | 0.019 | 0.015 |  |
| AW-Asparagine-diaminoethane-propionyl maleimide [AW-Asn] | 0.03 | 0.018 | >1 | 0.022 | 0.015 |  |
| AW-Methionine-(D)Lysine-diaminoethane-benzoyl maleimide [AW-Met-(D)Lys-aryl-maleimide] |  |  |  |  |  | IC50 Caki-2 (Caki-2; [5]): 0.012 µg/mL; IC50 786-O (786-O; [5]): 0.012 µg/mL; IC50 L428 (L428; [5]): >1 µg/mL; IC50 Caki-1 (Caki-1; [5]): 0.015 µg/mL |
| AW-Tyrosine-(D)Aspartic acid-diaminoethane-propionyl maleimide [AW-Tyr-(D)Asp] | 0.033 | 0.018 | >1 | 0.021 | 0.016 |  |
| MMAF-Methionine-(D)Lysine-diaminoethane-propionyl maleimide [MMAF-Met-(D)Lys] |  |  |  |  |  | IC50 LP-1 (LP-1; [6]): >1 µg/mL; IC50 786-O (786-O; [6]): 0.01 µg/mL; IC50 L-428 (L428; [6]): 0.123 µg/mL; IC50 Caki-1 (Caki-1; [6]): 0.008 µg/mL; IC50 UMRC-3 (UMRC-3; [6]): 0.1 µg/mL |
